How the values were obtained:
[1] = molecular target: T1, Rat lens Aldose reductase (Rattus norvegicus, UniProt P07943); assay: Aldose reductase inhibitory activity; assay type: biochemical; settings: rat lens enzyme, 0.2 mM NADPH, pH 6.2, 25° C.
T1 construct: Rat lens Aldose reductase is used; from tissue; host or cells: rat lens
Protocol: Rat lens Aldose reductase is used. Test compound and/or vehicle is preincubated with 3000 μg/ml enzyme (J. Enzyme Inhib. 1993, 7, 249-256; Biol. Pharm. Bull. 1994, 17, 458-459) and 0.2 mM NADPH in phosphate buffer pH 6.2 for 15 minutes at 25° C. The reaction is initiated by addition of 10 mM DL-glyceraldehyde and incubated for another 20 minutes. Determination of the amount of NADPH remained is read spectrophotometrically. Compounds are screened at 10 μM. Since enzyme activity may change from lot to lot, the concentration used will be adjusted if necessary.

[2] = molecular target: T2, Matrix metalloproteinase-2 (MMP-2) (Homo sapiens, UniProt P08253); assay: Matrix metalloproteinase-2 (MMP-2) inhibitory activity; assay type: biochemical
T2 sequence (P08253 110-660): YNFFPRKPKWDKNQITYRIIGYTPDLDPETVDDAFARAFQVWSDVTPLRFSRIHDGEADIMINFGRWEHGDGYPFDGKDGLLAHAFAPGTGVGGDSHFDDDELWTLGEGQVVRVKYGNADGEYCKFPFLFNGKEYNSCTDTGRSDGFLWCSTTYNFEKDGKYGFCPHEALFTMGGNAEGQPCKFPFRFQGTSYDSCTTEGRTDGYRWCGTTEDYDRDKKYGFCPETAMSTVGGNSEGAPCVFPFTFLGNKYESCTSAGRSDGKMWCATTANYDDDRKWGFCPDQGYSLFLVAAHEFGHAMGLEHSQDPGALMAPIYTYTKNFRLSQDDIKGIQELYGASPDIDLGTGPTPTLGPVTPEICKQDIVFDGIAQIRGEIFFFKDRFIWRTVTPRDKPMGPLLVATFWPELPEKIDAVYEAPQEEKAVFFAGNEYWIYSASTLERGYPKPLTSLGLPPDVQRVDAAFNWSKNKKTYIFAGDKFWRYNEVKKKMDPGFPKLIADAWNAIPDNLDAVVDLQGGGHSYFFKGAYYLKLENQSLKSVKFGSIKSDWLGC
Protocol: 3. Matrix Metalloproteinase-2 (MMP-2) Inhibitory Activity (at 10 μM)
MMP-2 enzymes are implicated in lung metastasis and there inhibition is useful to prevent or treat lung metastasis (Journal of Ethnopharmacology 2011, 133, 426-433).

[3] = tested on: Hepatic stellate cells (LX2); assay: Induction of apoptosis in hepatic stellate cells (LX2), propidium iodide staining; assay type: cell-based; settings: 8 hours, PI staining
From the text: Propidium iodide (PI) has been widely used to measure apoptosis in different experimental systems (Eur. J. Pharmacol., 2003, 473, 117-125; Br. J. Pharmacol., 2009, 158, 1720-1734). […] Next, cells were washed with PBS for 2 times to remove unbound PI and the fluorescence images were acquired with DP71 camera adapted to an Olympus IX71 microscope. Apoptotic cells were detected by propidium iodide (PI) staining and % apoptotic cells per field were estimated. Number of PI positive cells and total number of cells were counted from the images and plotted as percentage of apoptotic cells per field.

[4] = tested on: human endothelial cells (ECV 304); assay: Selectivity of apoptosis induction: endothelial cells; assay type: cell-based; settings: ECV 304, PI staining
Protocol: (§1) Propidium iodide (PI) has been widely used to measure apoptosis in different experimental systems (Eur. J. Pharmacol., 2003, 473, 117-125; Br. J. Pharmacol., 2009, 158, 1720-1734). The LX2 cells were treated with vehicle (DMSO), staurosporine (0.1 nM), compound of formula (B) (2 μM), compound of formula (C) (2 μM) for 8 hours followed by propidium iodide (PI) for 10 minute. Next, cells were washed with PBS for 2 times to remove unbound PI and the fluorescence images were acquired with DP71 camera adapted to an Olympus IX71 microscope. Apoptotic cells were detected by propidium iodide (PI) staining and % apoptotic cells per field were estimated. Number of PI positive cells and total number of cells were counted from the images and plotted as percentage of apoptotic cells per field.
(§2) The methodology adopted is same as in Experiment-7 above.
(§3) Apoptotic cells were detected by propidium iodide (PI) staining and % apoptotic cells per field were estimated.

[5] = tested on: human fibroblast cells isolated from skin biopsies; assay: Selectivity of apoptosis induction: skin fibroblasts; assay type: cell-based; settings: PI staining
Protocol: as §1, §2, §3

[6] = tested on: human hepatocytes (HepG2); assay: Selectivity of apoptosis induction: hepatocytes; assay type: cell-based; settings: HepG2, PI staining
[7] = tested on: 3T3-L1 fibroblasts; assay: Adipogenesis in 3T3-L1 mouse fibroblast (oil red O staining); assay type: cell-based; settings: 1 μM or 10 μM, 7 days
Protocol: 3T3-L1 fibroblasts were seeded at a concentration of 10,000 cells/well in 24 well tissue culture plates in a total volume of 1 mL Dulbecco's Modified Eagle Medium (DMEM media) containing 10% fetal bovine serum, penicillin and streptomycin. […] After every two days, the media contents were replaced with fresh media and the drug. This process was carried out for 7 days. After 7 days of treatment, the cells were fixed in 10% formalin for 1 hour at […], stained with oil red 0 solution for 10 minutes and washed 6 times with 1×PBS to remove the excess stain. The plates were dried and visualized under 40× objective using Nikon E200 microscope and the pictures were taken by Nikon DXM 1200C digital camera.

[8] = tested on: collagen type 1; assay: Collagen type 1 secretion in activated hepatic stellate cells (western blot); assay type: cell-based; settings: overnight incubation, FIGS. 35a & 35b
Protocol: HSC cells were treated with the drugs and incubated overnight. The conditioned media was taken out and the secreted proteins were extracted using TCA-acetone method. The cells were harvested for western blot analysis and 1% SDS was added to the sample. Proteins were detected by using 1:500 dilution of polyclonal antibody to collagen type 1 (Abcam; AB292) and 1:1000 dilutions of goat anti-rabbit IgG conjugated to horseradish peroxidase (Bangalore GENEI). The blots were developed by using substrate TMB/H2O2. Loading control was performed using the β-actin house keeping gene expression level.

[9] = 48 weeks, 4 mg twice daily; Hepatology, 2003, 38, 1008-1017; cited from earlier work

**Q.** With `N[C@@H](Cc1ccc(Oc2ccc(CC3SC(=O)NC3=O)cc2)cc1)C(=O)O` (stereo partly drawn) [Compound of formula (B), (2S)-2-Amino-3-(4-{4-[(2,4-dioxo-1,3-thiazolidin-5-yl)methyl]phenoxy}phenyl)propanoic acid] as the compound, how does the IC50 [1] read?
**A.** The IC50 was 4.92 µM.

**Q.** What about the inhibition at 10 µM [2] of the same compound?
**A.** The inhibition at 10 µM was 59%.

**Q.** What about the “% apoptotic cells per field” value ([3]; 2 μM) of the same compound?
**A.** Its value is 6±0.40%.

**Q.** What about the “apoptosis vs vehicle (DMSO)” value [4] of the same compound?
**A.** Its value is “no significant apoptosis”.

**Q.** And the “apoptosis vs vehicle (DMSO)” value [5]?
**A.** The value was “no significant apoptosis”.

**Q.** And the “apoptosis vs vehicle (DMSO)” value [6]?
**A.** The value was “no significant apoptosis”.

**Q.** What about the “adipogenesis (intracellular lipids stained with oil red O)” value [7] of the same compound?
**A.** The value was “did not induce adipogenesis”.

**Q.** And the “Collagen secretion by activated hepatic stellate cells” value [8]?
**A.** The value was “markedly decreased”.

**Q.** What does the source list for `O=C(O)Cc1ccc(Oc2ccc(CC3SC(=O)NC3=O)cc2)cc1` (stereo not shown) [Compound of formula (C), (4-{4-[(2,4-Dioxo-1,3-thiazolidin-5-yl)methyl]phenoxy}phenyl)acetic acid]?
**A.** IC50 [1]: 1.43 µM; inhibition at 10 µM [2]: 16%; % apoptotic cells per field ([3]; 2 μM): 7.5±0.64%; apoptosis vs vehicle (DMSO) [4]: no significant apoptosis; apoptosis vs vehicle (DMSO) [5]: no significant apoptosis; apoptosis vs vehicle (DMSO) [6]: no significant apoptosis; adipogenesis (intracellular lipids stained with oil red O) [7]: did not induce adipogenesis; Collagen secretion by activated hepatic stellate cells [8]: markedly decreased

**Q.** Which “median weight gain increase” value [9] does the source give for `CN(CCOc1ccc(CC2SC(=O)NC2=O)cc1)c1ccccn1` (stereo not shown) [Rosiglitazone] here?
**A.** The value was 7.3%.

**Q.** What about the “patients in whom weight gain occurred” value [9] of the same compound?
**A.** Its value is 67%.

**Q.** With `CN[C@@H]1C[C@H]2O[C@@](C)([C@@H]1OC)n1c3ccccc3c3c4c(c5c6ccccc6n2c5c31)C(=O)NC4` [staurosporine, reference compound] as the compound, how does the “% apoptotic cells per field” value ([3]; 0.1 nM) read?
**A.** Its value is “approximately 23%”.
